Reference: patent publication EP1541694A1, “Methods of identifying, selecting and/or characterizing compounds which modulate the activity of a Src family kinase” (Sirenade Pharmaceuticals AG, priority 2003, dated 2005)

Assays:
[1] = system: Src-TQ/YF expressing cell line ZM170.21; test: Suppression of tet-induced phenotype changes (cell scattering) in suspension, Ultra Low Attachment plates; type: cell-based, human; settings: ZM170.21 (Src-TQ/YF) in suspension, Ultralow Attachment Plates
Protocol: (§1) Cells were seeded into 24-well or 96-well "Ultra Low Attachment" plates (cat.no.: 3473, Costar Corning Corp., Acton, MA, USA). These plates are coated with a covalently bound hydrogel layer that prevents cellular attachment to the polystyrene surface of the wells. As the cells were not attached to these wells, a medium change was impossible here. However, the phenotypes were tested in full serum-containing medium in the absence or presence of EGF, PDGF-BB or HGF as detailed above. Tet-induction was also started the day after seeding.
(§2) Largely irrespective of the cell numbers per well, the cells of all cell lines were in suspension and formed one or few very condensed/compact, opaque, rod-, disc- or kidney-shaped aggregates with a smooth surface, in which individual cells could not be discerned. Phenotype changes became apparent ~24 h after tet induction in ZM77 and ZM170 cell lines only, and Δpt(-tet →+tet)max was reached after ~2 days. In these cell lines Src-YF or Src-TQ/YF expression, respectively, induces scattering of the cells. Many cells are floating in the medium individually or in small clusters and the remaining large aggregate(s) are irregular-shaped and rather loose than compact; individual cells can easily be discerned and thus, the surfaces of these aggregates are rough as with bunches of grapes (Fig.14a,b). This biological response was readily observed with or without any of the above growth factors, wherefore normal growth medium without any additional growth factor was subsequently used in this assay type.
(§3) To that end, the test compounds PP1-Chr., SU6656 and PP2 were individually added to the cells together with tet, and the development of the phenotype changes in the presence of these compounds was monitored subsequently in direct comparison with tet-induced cells that received no compound (Fig.14c-j). The compounds were also added to the cells without tet-induction of Src/ Src mutant expression as controls for non-specific/ toxicity effects. The experiments were performed with several ZM77 cell lines.

[2] = system: Src-YF expressing ZM77 cell lines; test: as above; type: cell-based, human; settings: Ultralow Attachment Plates
Protocol: as §1, §2, §3

[3] = system: Src-YF expressing cell line ZM77.8; test: CTB and ATP cell viability/metabolic activity assays, suppression of tet-induced reduction; type: cell-based, human; settings: ZM77.8 (Src-YF), 5µM PP2 + 10µM PP1-Chr., 40µM D5, 1µM 17-AAG, 1µM radicicol
Excerpt: (§4) To proof the concept of the assay platform according to the invention in a quantitative manner with a highly parallel readout, the following cell viability / metabolic activity assays from Promega according to the manufacturer's protocols: "CellTiter 96 AQueous One Solution Cell Proliferation Assay (MTS)", CellTiter-BlueTM Cell Viability Assay (CTB), and the ATP-status assay "CellTiter-Glo Luminescent Cell Viability Assay" (ATP) were used to obtain quantitative values reflecting (aspects of) the phenotype changes. The cells were seeded into white-walled/ clear bottom 96-well plates ["MICROTEST" by Falcon, cat.no. 353947] for MTS and ATP assays and in black-walled/ clear bottom 96-well plates ["MICROTEST" by Falcon, cat.no. 353948] for the CTB assay at the appropriate densities. Tet and/or compound addition (where applicable) was started the next day. Measurements were taken 1,2 and 3 days later using the Wallac Victor^2TM multilabel plate reader (Perkin Elmer). Absorbance was measured at 490nm (MTS). Luminescence mode was used for the ATP assay. For CTB fluorescence excitation wavelength was 550nm (filter: 550(20)nm), emission wavelength was 590 nm (filter: 590(20)nm). Indicated are the means of sixplicate determinations (from 6 independent wells) in the absence of tet (mean(-tet)) and in the presence of tet (mean(+tet)), followed by the respective corresponding standard deviations SD(-tet) and SD(+tet). The cell viability/ metabolic activity upon tet-induction in relation to the cell viability/ metabolic activity without tet ("+/tet(means") is calculated from the quotient of the means of the measured cell viability/ metabolic activity signals from i) cells incubated without tet and ii) cells incubated with tet. […] Furthermore indicated are the corresponding Z' values. In the present context: Z'=1-(3(SD(+tet)+SD(-tet))/ |mean(+tet)-mean(-tet)|. […] SD=0) (Zhang et al., 1999). Z'≥0 is required for an assay useful for a screening approach; a Z'≥0.5 is considered excellent for an assay with regard to high throughput screening. […] Three more parameters reflecting the effects of compounds on cell viability/metabolic activity in these assays are indicated in Tab.3 and Tab.4: Toxicity reflects the nonspecific (i.e. irrespective of tet-induced Src/ Src mutant expression) effects of a compound on the viability/ metabolic activity of the cells. It is calculated as toxicity=1-mean(-tet, compound)/mean(-tet,(DMSO)). […] The suppression value quantifies the potency of a compound with respect to suppression of the tet-induced change in cell viability / metabolic activity. Usually, tet-induction reduces cell viability / metabolic activity due to Src activity and addition of a Src inhibitory compound mitigates this reduction. A suppression of 100% means that the compound totally suppresses the tet-induced decrease in cell viability / metabolic activity (as in the absence of tet). The following formula is employed: Suppres-sion=([…]). Finally, the corresponding Z' value is calculated as follows: Z'(suppression)=1- 3([…]). The factor Qtox corrects the means and SD determined in the absence of a compound for the (nonspecific) toxicity effect of the respective compound, which would otherwise overlay and obscure the specific suppression, if toxicity is not neglectable. […] On each day 4 measurements are taken (1, 2, 3 and 4 h after the addition of the CTB assay reagents). […]

[4] = system: Src-TQ/YF expressing cell line ZM170.21; test: as above; type: cell-based, human; settings: ZM170.21 (Src-TQ/YF), 5µM PP2 + 10µM PP1-Chr., 40µM D5, 1µM 17-AAG, 1µM radicicol
Excerpt: as §4

[5] = system: cell line ZM76.3 (Src-KA); test: CTB cell viability assay, suppression of tet-induced reduction; type: cell-based, human; settings: ZM76.3, CTB assay
Excerpt: To proof the concept of the assay platform according to the invention in a quantitative manner with a highly parallel readout, the following cell viability / metabolic activity assays from Promega according to the manufacturer's protocols: "CellTiter 96 AQueous One Solution Cell Proliferation Assay (MTS)", CellTiter-BlueTM Cell Viability Assay (CTB), and the ATP-status assay "CellTiter-Glo Luminescent Cell Viability Assay" (ATP) were used to obtain quantitative values reflecting (aspects of) the phenotype changes. The cells were seeded into white-walled/ clear bottom 96-well plates ["MICROTEST" by Falcon, cat.no. […] Measurements were taken 1,2 and 3 days later using the Wallac Victor^2TM multilabel plate reader (Perkin Elmer). Absorbance was measured at 490nm (MTS). Luminescence mode was used for the ATP assay. For CTB fluorescence excitation wavelength was 550nm (filter: 550(20)nm), emission wavelength was 590 nm (filter: 590(20)nm). […] The cell viability/ metabolic activity upon tet-induction in relation to the cell viability/ metabolic activity without tet ("+/tet(means") is calculated from the quotient of the means of the measured cell viability/ metabolic activity signals from i) cells incubated without tet and ii) cells incubated with tet. […] It is calculated as toxicity=1-mean(-tet, compound)/mean(-tet,(DMSO)). […]

Abl-TQ = settings: cited from earlier work
[6] = system: Src-YF expressing ZM77 cell lines; test: Suppression of tet-induced phenotype changes, evaluated by eye/microscope, normal cell culture plates; type: cell-based, human; settings: adherent, serum-containing medium
Protocol: Phenotype changes -tet → +tet were evaluated in 24-well plates (Nunc; cat.no. 143982) under the following several different growth conditions to identify the strongest possible response (Δpt(-tet→+tet)max) 1. full (10% serum containing) growth medium a) without any growth factor supplement (-), b) with epidermal growth factor (EGF; 100ng/ml) (cat.no. 115, Research Diagnostics Inc. (RDI), Flanders, NJ, USA) or c) platelet derived growth factor type BB (PDGF-BB; 30ng/ml) (cat.no. 114b, RDI) or d) hepatocyte growth factor (HGF; 20ng/ml) (RDI, cat.no.300-010), or 2. serum-free medium a) - or b) +EGF or c) +PDGF or d) +HGF. In all cases, cells were first seeded into standard 24-well or 96-well plates (Nunc) in full growth medium. The cell number seeded per well was also varied to identify the most suitable cell densities producing Δpt(-tet→+tet)max. […]
To that end, the test compounds PP1-Chr., PP2 (cat.no. 529573, Calbiochem) and SU6656 (cat.no. 572635, Calbiochem) (see Fig.9p for chemical structures) were individually added to the cells together with tet, and the development of the phenotype changes in the presence of these compounds was monitored subsequently in direct comparison with cells that received no compound or only vehicle (0.2% DMSO) together with tet induction. […]

[7] = system: Src family kinases when they carry the respective TQ mutations; settings: cited from earlier work

Row | Structure (SMILES) | suppression of tet-induced phenotype (cell scattering) [1] | suppression of tet-induced phenotype changes (cell scattering) [2] | suppression of the tet-induced reductions of the cell viability/ metabolic activity (+/-tet(means)-values) [3] | suppression of the +/-tet(means)-values [4] | also measured
1 | C=CCNC1=C2C[C@@H](C)C[C@H](OC)[C@H](O)[C@@H](C)/C=C(\C)[C@H](OC(N)=O)[C@@H](OC)/C=C\C=C(/C)C(=O)NC(=CC1=O)C2=O [17-AAG] | suppress to a large extent | suppress to a large extent | equally effective | equally effective | 
2 | C[C@@H]1C[C@H]2O[C@@H]2/C=C\C=C\C(=O)Cc2c(Cl)c(O)cc(O)c2C(=O)O1 [Radicicol, radicicol] | suppress to a large extent | suppress to a large extent | equally effective | equally effective | suppression of the Src-KA-induced phenotype [5]: effectively suppressing
3 | Cc1ccc(NC(=O)c2ccc(CN3CCN(C)CC3)cc2)cc1Nc1nccc(-c2cccnc2)n1 [Gleevec®] |  |  |  |  | inhibition of Abl-TQ (Abl-TQ): does not inhibit
4 | CN(C)S(=O)(=O)c1ccc2c(c1)/C(=C/c1cc3c([nH]1)CCCC3)C(=O)N2 [SU6656] |  | partially suppressed |  |  | suppression of tet-induced phenotype changes [6]: partially suppressed
5 | Cc1ccc(-c2nn(C(C)(C)C)c3ncnc(N)c23)cc1 [PP1] |  |  |  |  | inhibition of Src family kinases carrying the TQ mutations [7]: do not inhibit
